In patent publication US9902696B2, “1,4-substituted piperidine derivatives” (Cephalon, Inc., priority 2015, dated 2018):
Counter-ions that a name gives are not always drawn.

What follows are compounds tested against T1, recombinant human baculovirus-expressed GST-tagged FASN (Homo sapiens, UniProt P49327) (assay: FASN enzyme activity assay, fluorescence-based detection of CoA with CPM). Details: 5 nM FASN, 150 μM NADPH, 10 μM acetyl-CoA, 25 μM malonyl-CoA, 90 minutes incubation; read-out: IC50 data for Additional Compounds of Formulae I-V(a): Activity.
T1 construct: GST
Assay type: biochemical
Procedure, shortened: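 CoA product reacted with thiol-reactive CPM (diluted to 50 μM in 70% ethanol), read at 390/530 nm after 30 min. Preceding reaction: 90 min, 5 nM recombinant GST-FASN, 150 μM NADPH, 10 μM acetyl-CoA, 25 μM malonyl-CoA, pH 7.5 HEPES, 0.5% DMSO. IC50s fitted by nonlinear sigmoidal regression.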

T1 sequence (P49327 whole entry): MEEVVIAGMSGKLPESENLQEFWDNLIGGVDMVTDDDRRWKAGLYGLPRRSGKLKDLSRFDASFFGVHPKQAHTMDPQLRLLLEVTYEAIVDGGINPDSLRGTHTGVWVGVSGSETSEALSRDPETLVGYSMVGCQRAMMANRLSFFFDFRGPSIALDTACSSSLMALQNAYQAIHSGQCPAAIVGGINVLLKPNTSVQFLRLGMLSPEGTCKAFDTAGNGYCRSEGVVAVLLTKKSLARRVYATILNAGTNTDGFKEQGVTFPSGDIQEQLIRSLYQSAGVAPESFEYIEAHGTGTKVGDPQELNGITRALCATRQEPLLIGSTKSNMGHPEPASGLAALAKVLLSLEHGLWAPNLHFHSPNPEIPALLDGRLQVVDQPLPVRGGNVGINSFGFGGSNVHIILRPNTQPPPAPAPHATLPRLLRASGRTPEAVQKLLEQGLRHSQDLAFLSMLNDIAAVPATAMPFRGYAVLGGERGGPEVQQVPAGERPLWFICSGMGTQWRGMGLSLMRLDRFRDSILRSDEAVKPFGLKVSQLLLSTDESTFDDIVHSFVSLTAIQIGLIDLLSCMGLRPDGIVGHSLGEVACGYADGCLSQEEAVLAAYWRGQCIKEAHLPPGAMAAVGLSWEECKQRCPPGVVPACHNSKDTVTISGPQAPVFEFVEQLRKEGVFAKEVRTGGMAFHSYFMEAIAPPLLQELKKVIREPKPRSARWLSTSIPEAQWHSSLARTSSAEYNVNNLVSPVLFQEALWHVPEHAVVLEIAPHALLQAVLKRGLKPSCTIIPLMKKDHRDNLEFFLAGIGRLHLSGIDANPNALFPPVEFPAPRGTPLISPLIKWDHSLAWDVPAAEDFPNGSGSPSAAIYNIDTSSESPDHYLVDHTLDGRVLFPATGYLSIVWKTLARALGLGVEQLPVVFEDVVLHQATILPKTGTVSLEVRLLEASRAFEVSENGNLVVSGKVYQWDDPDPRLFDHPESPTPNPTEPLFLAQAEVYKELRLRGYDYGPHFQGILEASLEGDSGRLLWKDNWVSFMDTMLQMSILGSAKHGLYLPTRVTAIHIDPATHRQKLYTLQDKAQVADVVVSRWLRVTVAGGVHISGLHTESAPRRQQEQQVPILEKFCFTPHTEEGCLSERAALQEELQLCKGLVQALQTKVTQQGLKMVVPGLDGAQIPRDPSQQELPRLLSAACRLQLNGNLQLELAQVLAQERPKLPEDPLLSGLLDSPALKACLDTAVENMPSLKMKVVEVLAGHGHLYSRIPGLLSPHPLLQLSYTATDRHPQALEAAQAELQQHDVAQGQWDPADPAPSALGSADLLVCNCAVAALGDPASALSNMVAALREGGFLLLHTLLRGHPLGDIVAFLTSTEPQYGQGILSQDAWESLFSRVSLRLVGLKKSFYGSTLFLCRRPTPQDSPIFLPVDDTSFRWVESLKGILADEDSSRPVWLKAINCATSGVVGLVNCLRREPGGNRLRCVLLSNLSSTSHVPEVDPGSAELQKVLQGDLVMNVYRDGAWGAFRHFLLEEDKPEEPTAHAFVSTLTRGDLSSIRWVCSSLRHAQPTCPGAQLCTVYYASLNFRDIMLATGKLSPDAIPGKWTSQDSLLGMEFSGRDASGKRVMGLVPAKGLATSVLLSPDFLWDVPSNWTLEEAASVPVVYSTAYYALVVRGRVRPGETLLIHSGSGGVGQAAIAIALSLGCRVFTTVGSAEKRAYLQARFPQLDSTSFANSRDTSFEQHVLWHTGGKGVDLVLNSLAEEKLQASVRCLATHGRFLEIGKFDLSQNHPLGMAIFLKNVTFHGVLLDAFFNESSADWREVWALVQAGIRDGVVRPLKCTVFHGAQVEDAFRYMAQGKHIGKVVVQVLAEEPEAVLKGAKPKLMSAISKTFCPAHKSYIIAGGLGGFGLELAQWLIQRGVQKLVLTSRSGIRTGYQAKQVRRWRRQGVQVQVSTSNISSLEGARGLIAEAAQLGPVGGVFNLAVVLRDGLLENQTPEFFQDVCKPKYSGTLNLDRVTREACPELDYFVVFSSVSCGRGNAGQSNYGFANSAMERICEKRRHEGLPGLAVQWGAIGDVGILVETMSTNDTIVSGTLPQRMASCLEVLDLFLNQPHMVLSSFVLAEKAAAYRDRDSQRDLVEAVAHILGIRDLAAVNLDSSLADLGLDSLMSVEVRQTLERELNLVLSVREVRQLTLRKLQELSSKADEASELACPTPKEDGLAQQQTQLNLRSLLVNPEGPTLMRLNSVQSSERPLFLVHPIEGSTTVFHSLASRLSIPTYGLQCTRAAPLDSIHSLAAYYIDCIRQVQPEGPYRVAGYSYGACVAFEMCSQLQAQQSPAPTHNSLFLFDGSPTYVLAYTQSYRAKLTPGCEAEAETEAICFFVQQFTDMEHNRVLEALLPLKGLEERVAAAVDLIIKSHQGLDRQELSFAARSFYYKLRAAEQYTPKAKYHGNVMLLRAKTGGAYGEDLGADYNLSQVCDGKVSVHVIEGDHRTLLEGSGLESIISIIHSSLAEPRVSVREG

Which IC50 does the source give for CCONC(=O)N1CCC(Oc2ccc(-c3ccc4nccn4c3C)cc2)CC1 [Example 608, N-Ethoxy-4-[4-(5-methylimidazo[1,2-a]pyridin-6-yl)phenoxy]piperidine-1-carboxamide] here?
The IC50 was 100 to 999 nM.

For Cc1c(-c2ccc(OC3CCN(C(=O)NOC(C)C)CC3)cc2)ccc2nccn12 [Example 600, N-Isopropoxy-4-[4-(5-methylimidazo[1,2-a]pyridin-6-yl)phenoxy]piperidine-1-carboxamide], which IC50 is on record?
The IC50 was 100 to 999 nM.

With Cc1c(-c2ccc(OC3CCN(C(=O)N4CCCCO4)CC3)cc2)ccc2cccnc12 [Example 558, [4-[4-(8-Methyl-7-quinolyl)phenoxy]-1-piperidyl]-(oxazinan-2-yl)methanone] as the compound, how does the IC50 read?
Its IC50 is 1000 to 10000 nM.

Which IC50 does the source give for Cc1c(-c2ccc(OC3CCN(C(=O)Nc4cnn(C)c4)CC3)cc2)ccc2nccn12 [Example 604, 4-[4-(5-Methylimidazo[1,2-a]pyridin-6-yl)phenoxy]-N-(1-methylpyrazol-4-yl)piperidine-1-carboxamide] here?
The IC50 was 1000 to 10000 nM.

With COCCNC(=O)N1CCC(Oc2ccc(-c3ccc4cccnc4c3C)cc2)CC1 [Example 542, N-(2-Methoxyethyl)-4-[4-(8-methyl-7-quinolyl)phenoxy]piperidine-1-carboxamide HCl] as the compound, how does the IC50 read?
The IC50 was 1 to 99 nM.

For Cc1c(-c2ccc(OC3CCN(C(=O)NC4CCC4)CC3)cc2)ccc2cccnc12 [Example 552, N-Cyclobutyl-4-[4-(8-methyl-7-quinolyl)phenoxy]piperidine-1-carboxamide HCl], which IC50 is on record?
The IC50 was 1000 to 10000 nM.

Which IC50 does the source give for Cc1c(-c2ccc(OC3CCN(C(=O)NO)CC3)cc2)ccc2cccnc12 [Example 554, 4-[4-(8-Methyl-7-quinolyl)phenoxy]piperidine-1-carbohydroxamic acid, HCl] here?
The IC50 was 1000 to 10000 nM.

Same assay, conditions: 5 nM FASN, 150 μM NADPH, 10 μM acetyl-CoA, 25 μM malonyl-CoA, 90 minutes incubation; read-out: IC50 data for Compounds of Formulae I-V/V(a): Activity

Cc1c(-c2ccc(O[C@@H]3CCN4C(=O)CC[C@H]4C3)cc2)ccc2cccnc12 (racemic) [Example 356, (±)-(7R,8aS)-7-(4-(8-Methylquinolin-7-yl)phenoxy)hexahydroindolizin-3(2H)-one] was tested. Which IC50 did it give?
The IC50 was 1000 to 10000 nM.

For CCC(=O)N1CCC(Oc2ccc(-c3ccc4cccnc4c3OCCOC)cc2)CC1 [Example 178, 1-[4-[4-[8-(2-Methoxyethoxy)-7-quinolyl]phenoxy]-1-piperidyl]propan-1-one, HCl], which IC50 is on record?
Its IC50 is 100 to 999 nM.

O=C(C1CC1)N1CCC(Oc2ccc(-c3ccnc(Nc4ccccc4)c3)cc2)CC1 [Example 405, Cyclopropyl-{4-[4-(2-phenylaminopyridin-4-yl)-phenoxy]-piperidin-1-yl}-methanone] was tested. Which IC50 did it give?
The IC50 was 1000 to 10000 nM.

For Cc1ccc2ncc(-c3ccc(OC4CCN(C(=O)[C@H]5CCCO5)CC4)cc3)cc2c1 [Example 485, {4-[4-(6-Methylquinolin-3-yl)-phenoxy]-piperidin-1-yl}-(R)-tetrahydro-furan-2-yl-methanone, HCl], which IC50 is on record?
The IC50 was 1 to 99 nM.

Which IC50 does the source give for N#Cc1ccc(-c2ccc(OC3CCN(C(=O)[C@H]4CCCO4)CC3)cc2)cc1 [Example 244, 4′-[1-((R)-Tetrahydrofuran-2-carbonyl)-piperidin-4-yloxy]-biphenyl-4-carbonitrile] here?
Its IC50 is 1 to 99 nM.

How did the IC50 turn out when Cc1cccc2ncc(-c3ccc(OC4CCN(C(=O)C5CC5)CC4)cc3)cc12 [Example 461, Cyclopropyl-{4-[4-(5-methyl-quinolin-3-yl)-phenoxy]-piperidin-1-yl}-methanone, HCl] was run?
The IC50 was 100 to 999 nM.

CCC(=O)N1CCC(Oc2ccc(-c3cnc4ccccc4c3N)cc2)CC1 [Example 231, 1-{4-[4-(4-Aminoquinolin-3-yl)-phenoxy]-piperidin-1-yl}-propan-1-one] was tested. Which IC50 did it give?
The IC50 was 1000 to 10000 nM.

COc1cc(OC2CCN(C(=O)C(C)C)CC2)ccc1-c1cnc2ccccc2c1 [Example 210, 1-[4-(3-Methoxy-4-quinolin-3-yl-phenoxy)-piperidin-1-yl]-2-methyl-propan-1-one] was tested. Which IC50 did it give?
Its IC50 is 1000 to 10000 nM.

With CCC(=O)N1CCC(Oc2ccc(-c3ccc4cnc(N(C)C)cc4c3)cc2)CC1 [Example 421, 1-{4-[4-(3-Dimethylaminoisoquinolin-6-yl)-phenoxy]-piperidin-1-yl}-propan-1-one] as the compound, how does the IC50 read?
The IC50 was 1000 to 10000 nM.

With O=C(C1CC1)N1CCC(Oc2ccc(-c3ccn4cnnc4c3)cc2)CC1 [Example 308, Cyclopropyl-[4-(4-[1,2,4]triazolo[4,3-a]pyridin-7-yl-phenoxy)-piperidin-1-yl]-methanone] as the compound, how does the IC50 read?
The IC50 was 1000 to 10000 nM.

How did the IC50 turn out when O=C([C@H]1CCCO1)N1CCC(Oc2ccc(-c3cc4ccccc4cn3)cc2)CC1 [Example 46, [4-(4-Isoquinolin-3-yl-phenoxy)-piperidin-1-yl]-(R)-tetrahydrofuran-2-yl-methanone] was run?
Its IC50 is 1 to 99 nM.

How did the IC50 turn out when O=C(N1CCC(Oc2ccc(-c3cc4ccccc4cn3)cc2)CC1)N1CCCO1 [Example 74, [4-(4-Isoquinolin-3-yl-phenoxy)-piperidin-1-yl]-isoxazolidin-2-yl-methanone] was run?
The IC50 was 1 to 99 nM.

Which IC50 does the source give for CC(C)(C)OC(=O)N1CCC(Oc2ccc(-c3ccc(C#N)cc3)cc2)CC1 [Example 490, 4-(4′-Cyano-biphenyl-4-yloxy)-piperidine-1-carboxylic acid t-butyl ester] here?
Its IC50 is 1000 to 10000 nM.

For CCC(=O)N1CCC(Oc2ccc(-c3ccc4ccccc4n3)cc2)CC1 [Example 40, 1-[4-(4-Quinolin-2-yl-phenoxy)-piperidin-1-yl]-propan-1-one], which IC50 is on record?
Its IC50 is 100 to 999 nM.

For O=C([C@H]1CCCO1)N1CCC(Oc2ccc(-c3ccc4ccccc4n3)cc2)CC1 [Example 42, [4-(4-Quinolin-2-yl-phenoxy)-piperidin-1-yl]-(R)-tetrahydrofuran-2-yl-methanone], which IC50 is on record?
Its IC50 is 1 to 99 nM.

Which IC50 does the source give for COc1cc(-c2cnc3ccccc3c2)ccc1OC1CCN(C(=O)C(C)C)CC1 [Example 197, 1-[4-(2-Methoxy-4-quinolin-3-yl-phenoxy)-piperidin-1-yl]-2-methyl-propan-1-one] here?
The IC50 was 1000 to 10000 nM.

Which IC50 does the source give for CCC(=O)N1CCC(Oc2ccc(-c3ccc4cnc(OC)cc4c3)cc2)CC1 [Example 415, 1-{4-[4-(3-Methoxyisoquinolin-6-yl)-phenoxy]-piperidin-1-yl}-propan-1-one] here?
The IC50 was 1000 to 10000 nM.

With CCC(=O)N1CCC(Oc2ccc(-c3cnc4c(c3)CCCC4)cc2)CC1 [Example 21, 1-{4-[4-(5,6,7,8-Tetrahydroquinolin-3-yl)-phenoxy]-piperidin-1-yl}-propan-1-one] as the compound, how does the IC50 read?
The IC50 was 1000 to 10000 nM.

With CC(C)C(=O)N1CCC(Oc2ccc(-c3cnc4ccccc4c3)cc2)CC1 [Example 113, 2-Methyl-1-[4-(4-quinolin-3-yl-phenoxy)-piperidin-1-yl]-propan-1-one, HCl] as the compound, how does the IC50 read?
The IC50 was 100 to 999 nM.

How did the IC50 turn out when CC(C)C(=O)N1CCC(S(=O)(=O)c2ccc(-c3ccc4ccncc4c3)cc2)CC1 [Example 513, 1-[4-(4-Isoquinolin-7-yl-benzenesulfonyl)-piperidin-1-yl]-2-methylpropan-1-one] was run?
The IC50 was 1000 to 10000 nM.

With COc1cc2ncc(-c3ccc(OC4CCN(C(=O)[C@H]5CCCO5)CC4)cc3)cc2cc1F [Example 446, {4-[4-(6-Fluoro-7-methoxyquinolin-3-yl)-phenoxy]-piperidin-1-yl}-(R)-tetrahydrofuran-2-yl-methanone] as the compound, how does the IC50 read?
Its IC50 is 1000 to 10000 nM.

O=C(N1CCC(Oc2ccc(-c3ccc4cncn4c3)cc2)CC1)C1(O)CC1 [Example 302, (1-Hydroxycyclopropyl)-[4-(4-imidazo[1,5-a]pyridin-6-yl-phenoxy)-piperidin-1-yl]-methanone] was tested. Which IC50 did it give?
The IC50 was 1 to 99 nM.

With Cc1c(-c2ccc(OC3CCN(C(=O)C4(O)CC4)CC3)cc2)ccc2nccn12 [Example 309, (1-Hydroxycyclopropyl)-{4-[4-(5-methyl-imidazo[1,2-a]pyridin-6-yl)-phenoxy]-piperidin-1-yl}-methanone] as the compound, how does the IC50 read?
Its IC50 is 1 to 99 nM.

How did the IC50 turn out when CCC(=O)N1CCC(Oc2ccc(-c3ccc4cccnc4c3)cc2)C1 (stereo in doubt) [Example 342, (S)-1-(3-(4-(Quinolin-7-yl)phenoxy)pyrrolidin-1-yl)propan-1-one, HCl] was run?
The IC50 was 1000 to 10000 nM.

How did the IC50 turn out when CCC(=O)N1CCC(Oc2ccc(-c3ccnc(-c4ccccc4)c3)cc2)CC1 [Example 402, 1-{4-[4-(2-Phenylpyridin-4-yl)-phenoxy]-piperidin-1-yl}-propan-1-one, TFA] was run?
The IC50 was 1000 to 10000 nM.

Which IC50 does the source give for Cc1cc(-c2ccc(OC3CCN(C(=O)C4CC4)CC3)cc2)cn2ccnc12 [Example 288, Cyclopropyl-{4-[4-(8-methylimidazo[1,2-a]pyridin-6-yl)-phenoxy]-piperidin-1-yl}-methanone] here?
Its IC50 is 100 to 999 nM.

How did the IC50 turn out when CCC(=O)N1CCC(Oc2ccc(-c3cnc4cccc(F)c4c3)cc2)CC1 [Example 29, 1-{4-[4-(5-Fluoroquinolin-3-yl)-phenoxy]-piperidin-1-yl}-propan-1-one] was run?
The IC50 was 1 to 99 nM.

For O=C(C1CC1)N1CCC(Oc2ccc(-c3cc4ccccc4nc3Cl)cc2)CC1 [Example 17, {4-[4-(2-Chloroquinolin-3-yl)-phenoxy]-piperidin-1-yl}-cyclopropyl-methanone], which IC50 is on record?
The IC50 was 1000 to 10000 nM.

With CC(C)(C)C(=O)N1CCC(Oc2ccc(-c3cnc4ccccc4c3)cc2)CC1 [Example 114, 2,2-Dimethyl-1-[4-(4-quinolin-3-yl-phenoxy)-piperidin-1-yl]-propan-1-one, HCl] as the compound, how does the IC50 read?
Its IC50 is 100 to 999 nM.

CCC(=O)N1CCC(Oc2ccc(-c3cnc4[nH]ccc4c3)cc2)CC1 [Example 32, 1-{4-[4-(1H-Pyrrolo[2,3-b]pyridin-5-yl)-phenoxy]-piperidin-1-yl}-propan-1-one] was tested. Which IC50 did it give?
Its IC50 is 100 to 999 nM.

How did the IC50 turn out when Cc1c(-c2ccc(OC3CCN(C(=O)C4CCC4)CC3)cc2)ccc2cccnc12 [Example 38] was run?
Its IC50 is 1 to 99 nM.

With O=C(C1CC1)N1CCC(Oc2ccc(-c3ccc4cncn4c3)cc2)CC1 [Example 300, Cyclopropyl-[4-(4-imidazo[1,5-a]pyridin-6-yl-phenoxy)-piperidin-1-yl]-methanone] as the compound, how does the IC50 read?
The IC50 was 1000 to 10000 nM.

How did the IC50 turn out when CCC(=O)N1CCC(Oc2ccc(-c3cnc4ccccc4c3)cc2OC)CC1 [Example 196, 1-[4-(2-Methoxy-4-quinolin-3-yl-phenoxy)-piperidin-1-yl]-propan-1-one] was run?
Its IC50 is 1000 to 10000 nM.
